Experimental data from publication PMC11044139, “Comparative Study of Toxic Terpenoidal Aldehydes and Lactone Derivatives from the European Polypore Bondarzewia mesenterica” (ACS Omega, 2024).
Values after ≈ are worked out from the molar mass of the structure shown.

Assays:
Assay type in all cases: cell-based
[1] = system: Acinetobacter baumanii (DSM 30008); experiment: Antimicrobial assay (MIC), A. baumanii; details: overnight incubation, n.i. = no inhibition up to 67 μg/mL
Experimental: (§1) The antimicrobial effects of the isolated compounds were determined using our established protocols.[19] Generally, an array of clinically relevant microorganisms consisting of bacteria, namely, S. aureus (DSM 346), A. baumanii (DSM 30008), B. subtilis (DSM 10), E. coli (DSM 1116), P. aeruginosa (PA14), C. violaceum (DSM 30191), and M. smegmatis (ATCC 700084), and fungi including M. hiemalis (DSM 2656), C. albicans (DSM 1665), R. glutinis (DSM 10134), S. pombe (DSM 70572), and P. anomala (DSM 6766), were used. […] The minimum inhibitory concentrations (MIC) were recorded after an overnight incubation as the lowest concentration under which no microbial growth was visualized. The microorganisms were obtained from the German Collection of Microorganisms and Cell Cultures (DSMZ, Braunschweig, Germany).

[2] = system: Pichia anomala (DSM 6766); experiment: Antimicrobial assay (MIC), P. anomala; details: Hansenula anomala, DSM6766; Pichia anomala; overnight incubation; n.i. = no inhibition up to 67 μg/mL; read-out: MIC
Experimental: as §1

[3] = system: Chromobacterium violaceum (DSM 30191); experiment: Antimicrobial assay (MIC), C. violaceum; details: overnight incubation, n.i. = no inhibition up to 67 μg/mL
Experimental: as §1

[4] = system: all tested cell lines; experiment: Cytotoxicity (MTT) assay, all tested cell lines; details: tested cell lines
Source text: MTT (3-(4,5-dimethylthiayol-2-yl)-2,5-diphenyltetrazolium bromide)-based assay was used to determine in vitro cytotoxicity as previously reported.[24] The tested mammalian cell lines included mouse fibroblasts (L929), endocervical adenocarcinoma (KB3.1), human lung carcinoma (A549), breast adenocarcinoma (MCF-7), prostate carcinoma (PC-3), and epidermoid carcinoma cells (A431). Epothilone B was used as a positive control.

[5] = system: P. anomala, M. hiemalis, and Rhodotorula glutinis; experiment: Antimicrobial assay (MIC), three fungi summarised in text; details: range over three fungi
Experimental: as §1

[6] = system: Mycobacterium smegmatis (ATCC 700084); experiment: Antimicrobial assay (MIC), M. smegmatis; details: Mycobacterium smegmatis; overnight incubation; n.i. = no inhibition up to 67 μg/mL
Experimental: as §1

[7] = system: Escherichia coli (DSM 1116); experiment: Antimicrobial assay (MIC), E. coli; details: overnight incubation, n.i. = no inhibition up to 67 μg/mL
Experimental: as §1

[8] = system: Schizosaccharomyces pombe (DSM 70572); experiment: Antimicrobial assay (MIC), S. pombe; details: overnight incubation, n.i. = no inhibition up to 67 μg/mL
Experimental: as §1

[9] = system: Pseudomonas aeruginosa (PA14); experiment: Antimicrobial assay (MIC), P. aeruginosa; details: overnight incubation, n.i. = no inhibition up to 67 μg/mL
Experimental: as §1

[10] = system: Staphylococcus aureus (DSM 346); experiment: Antimicrobial assay (MIC), S. aureus; details: overnight incubation, n.i. = no inhibition up to 67 μg/mL
Experimental: as §1

[11] = system: Bacillus subtilis (DSM 10); experiment: Antimicrobial assay (MIC), B. subtilis; details: overnight incubation, n.i. = no inhibition up to 67 μg/mL
Experimental: as §1

[12] = system: Rhodotorula glutinis (DSM 10134); experiment: Antimicrobial assay (MIC), R. glutinis; details: DSM10134, overnight incubation, n.i. = no inhibition up to 67 μg/mL, read-out: MIC
Experimental: as §1

[13] = system: Mucor hiemalis (DSM 2656); experiment: Antimicrobial assay (MIC), M. hiemalis; details: DSM2656, overnight incubation, n.i. = no inhibition up to 67 μg/mL, read-out: MIC
Experimental: as §1

[14] = system: Candida albicans (DSM 1665); experiment: Antimicrobial assay (MIC), C. albicans; details: overnight incubation, n.i. = no inhibition up to 67 μg/mL
Experimental: as §1

Question: Which results are given for `CC(C)=CCc1cc(C=O)ccc1O` [Compound 9, 4-hydroxy-3(3-methylbut-2-enyl)benzaldehyde]?
Answer: MIC [1]: n.i.; MIC [2]: 33.3 µg/mL (≈ 175 µM); MIC [3]: n.i.; cytotoxic effects (in words) [4]: no apparent cytotoxic effects; MIC values, range against P. anomala, M. hiemalis, and Rhodotorula glutinis [5]: 33.3 to 66.6 µg/mL; MIC [6]: n.i.; MIC [7]: n.i.; MIC [8]: n.i.; MIC [9]: n.i.; MIC [10]: n.i.; MIC [11]: n.i.; MIC [12]: 66.6 µg/mL (≈ 350 µM); MIC [13]: 66.6 µg/mL (≈ 350 µM); MIC [14]: n.i.
